Laboratory results from patent publication US11718604B2, “4-amino-6-(1,3-benzodioxole)picolinates and their use as herbicides” (Dow AgroSciences LLC, priority 2018, dated 2023).

How the values were obtained:
Type in all cases: in vivo
[1] = system: DIGSA: large crabgrass (Digitaria sanguinalis); test: Post-emergent herbicidal test, large crabgrass; details: post-emergence, 336 h, 14 days after application, read-out: Visual Growth Reduction (%) 14 Days After Application DIGSA; for pest or weed control at 17.5 g/ha: 17.5 g ai/ha; for pest or weed control at 35 g/ha: 35 g ai/ha; for pest or weed control at 70 g/ha: 70 g ai/ha; for pest or weed control at 140 g/ha: 140 g ai/ha
Outline: (§1)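 Plants are raised in potting mix of pH 6.0 to 6.8 in a greenhouse until the first or second true leaf, then sprayed with formulated compound at 187 L/ha at several rates (½× to 1/16× of the top rate). After 14 d, damage is rated visually as percent injury against untreated plants.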

[2] = system: ECHCG: barnyardgrass (Echinochloa crus-galli); test: Post-emergent herbicidal test, barnyardgrass; details: post-emergence, 336 h, 14 days after application, read-out: Visual Growth Reduction (%) 14 Days After Application ECHCG; for pest or weed control at 17.5 g/ha: 17.5 g ai/ha; for pest or weed control at 35 g/ha: 35 g ai/ha; for pest or weed control at 70 g/ha: 70 g ai/ha; for pest or weed control at 140 g/ha: 140 g ai/ha
Outline: as §1

[3] = system: SETFA: giant foxtail (Setaria faberi); test: Post-emergent herbicidal test, giant foxtail; details: post-emergence, 336 h, 14 days after application, read-out: Visual Growth Reduction (%) 14 Days After Application SETFA; for pest or weed control at 17.5 g/ha: 17.5 g ai/ha; for pest or weed control at 35 g/ha: 35 g ai/ha; for pest or weed control at 70 g/ha: 70 g ai/ha; for pest or weed control at 140 g/ha: 140 g ai/ha
Outline: as §1

[4] = system: BRSNN: oilseed rape, canola (Brassica napus); test: Post-emergent herbicidal test, oilseed rape; details: post-emergence, 336 h, 14 days after application, read-out: Visual Growth Reduction (%) 14 Days After Application BRSNN; for pest or weed control at 17.5 g/ha: 17.5 g ai/ha; for pest or weed control at 35 g/ha: 35 g ai/ha; for pest or weed control at 70 g/ha: 70 g ai/ha; for pest or weed control at 140 g/ha: 140 g ai/ha
Outline: as §1

[5] = system: ABUTH: velvetleaf (Abutilon theophrasti); test: Post-emergent herbicidal test, velvetleaf; details: post-emergence, 336 h, 14 days after application, read-out: Visual Growth Reduction (%) 14 Days After Application ABUTH; for pest or weed control at 17.5 g/ha: 17.5 g ai/ha; for pest or weed control at 35 g/ha: 35 g ai/ha; for pest or weed control at 70 g/ha: 70 g ai/ha; for pest or weed control at 140 g/ha: 140 g ai/ha
Outline: as §1

[6] = system: VIOTR: wild violet (Viola tricolor); test: Post-emergent herbicidal test, wild violet; details: post-emergence, 336 h, 14 days after application, read-out: Visual Growth Reduction (%) 14 Days After Application VIOTR; for pest or weed control at 17.5 g/ha: 17.5 g ai/ha; for pest or weed control at 35 g/ha: 35 g ai/ha; for pest or weed control at 70 g/ha: 70 g ai/ha; for pest or weed control at 140 g/ha: 140 g ai/ha
Outline: as §1

[7] = system: CIRAR: Canada thistle (Cirsium arvense); test: Post-emergent herbicidal test, Canada thistle; details: post-emergence, 336 h, 14 days after application, read-out: Visual Growth Reduction (%) 14 Days After Application CIRAR; for pest or weed control at 17.5 g/ha: 17.5 g ai/ha; for pest or weed control at 35 g/ha: 35 g ai/ha; for pest or weed control at 70 g/ha: 70 g ai/ha; for pest or weed control at 140 g/ha: 140 g ai/ha
Outline: as §1

[8] = system: EPHHL: wild poinsettia (Euphorbia heterophylla); test: Post-emergent herbicidal test, wild poinsettia; details: post-emergence, 336 h, 14 days after application, read-out: Visual Growth Reduction (%) 14 Days After Application EPHHL; for pest or weed control at 17.5 g/ha: 17.5 g ai/ha; for pest or weed control at 35 g/ha: 35 g ai/ha; for pest or weed control at 70 g/ha: 70 g ai/ha; for pest or weed control at 140 g/ha: 140 g ai/ha
Outline: as §1

[9] = system: IPOHE: ivyleaf morningglory (Ipomoea hederacea); test: Post-emergent herbicidal test, ivyleaf morningglory; details: post-emergence, 336 h, 14 days after application, read-out: Visual Growth Reduction (%) 14 Days After Application IPOHE; for pest or weed control at 17.5 g/ha: 17.5 g ai/ha; for pest or weed control at 35 g/ha: 35 g ai/ha; for pest or weed control at 70 g/ha: 70 g ai/ha; for pest or weed control at 140 g/ha: 140 g ai/ha
Outline: as §1

[10] = system: CYPES: yellow nutsedge (Cyperus esculentus); test: Post-emergent herbicidal test, yellow nutsedge; details: post-emergence, 336 h, 14 days after application, read-out: Visual Growth Reduction (%) 14 Days After Application CYPES; for pest or weed control at 17.5 g/ha: 17.5 g ai/ha; for pest or weed control at 35 g/ha: 35 g ai/ha; for pest or weed control at 70 g/ha: 70 g ai/ha; for pest or weed control at 140 g/ha: 140 g ai/ha
Outline: as §1

[11] = system: SORVU: shattercane (Sorghum bicolor); test: Post-emergent herbicidal test, shattercane; details: post-emergence, 336 h, 14 days after application, read-out: Visual Growth Reduction (%) 14 Days After Application SORVU; for pest or weed control at 17.5 g/ha: 17.5 g ai/ha; for pest or weed control at 35 g/ha: 35 g ai/ha; for pest or weed control at 70 g/ha: 70 g ai/ha; for pest or weed control at 140 g/ha: 140 g ai/ha
Outline: as §1

COC(=O)c1nc(-c2ccc(F)c3c2OCO3)c(F)c(N)c1Cl [Compound 15]
pest or weed control at 17.5 g/ha [1]: 0%
pest or weed control at 35 g/ha [1]: 0%
pest or weed control at 70 g/ha [1]: 0%
pest or weed control at 140 g/ha [1]: 0%
pest or weed control at 17.5 g/ha [2]: 0%
pest or weed control at 35 g/ha [2]: 0%
pest or weed control at 70 g/ha [2]: 0%
pest or weed control at 140 g/ha [2]: 0%
pest or weed control at 17.5 g/ha [3]: 0%
pest or weed control at 35 g/ha [3]: 0%
pest or weed control at 70 g/ha [3]: 0%
pest or weed control at 140 g/ha [3]: 20%
pest or weed control at 17.5 g/ha [4]: 20%
pest or weed control at 35 g/ha [4]: 40%
pest or weed control at 70 g/ha [4]: 95%
pest or weed control at 140 g/ha [4]: 100%
pest or weed control at 17.5 g/ha [5]: 70%
pest or weed control at 35 g/ha [5]: 85%
pest or weed control at 70 g/ha [5]: 90%
pest or weed control at 140 g/ha [5]: 100%
pest or weed control at 17.5 g/ha [6]: 30%
pest or weed control at 35 g/ha [6]: 60%
pest or weed control at 70 g/ha [6]: 70%
pest or weed control at 140 g/ha [6]: 80%
pest or weed control at 17.5 g/ha [7]: 80%
pest or weed control at 35 g/ha [7]: 85%
pest or weed control at 70 g/ha [7]: 90%
pest or weed control at 140 g/ha [7]: 95%
pest or weed control at 17.5 g/ha [8]: 0%
pest or weed control at 35 g/ha [8]: 0%
pest or weed control at 70 g/ha [8]: 0%
pest or weed control at 140 g/ha [8]: 0%
pest or weed control at 17.5 g/ha [9]: 0%
pest or weed control at 35 g/ha [9]: 0%
pest or weed control at 70 g/ha [9]: 0%
pest or weed control at 140 g/ha [9]: 0%
pest or weed control at 17.5 g/ha [10]: 0%
pest or weed control at 35 g/ha [10]: 0%
pest or weed control at 70 g/ha [10]: 0%
pest or weed control at 140 g/ha [10]: 0%
pest or weed control at 17.5 g/ha [11]: 0%
pest or weed control at 35 g/ha [11]: 0%
pest or weed control at 70 g/ha [11]: 0%
pest or weed control at 140 g/ha [11]: 20%

Nc1c(F)c(-c2cccc3c2OC(F)(F)O3)nc(C(=O)O)c1Cl [Compound 5]
pest or weed control at 17.5 g/ha [1]: 0%
pest or weed control at 35 g/ha [1]: 0%
pest or weed control at 70 g/ha [1]: 0%
pest or weed control at 140 g/ha [1]: 0%
pest or weed control at 17.5 g/ha [2]: 0%
pest or weed control at 35 g/ha [2]: 0%
pest or weed control at 70 g/ha [2]: 0%
pest or weed control at 140 g/ha [2]: 0%
pest or weed control at 17.5 g/ha [3]: 0%
pest or weed control at 35 g/ha [3]: 0%
pest or weed control at 70 g/ha [3]: 0%
pest or weed control at 140 g/ha [3]: 0%
pest or weed control at 17.5 g/ha [4]: 75%
pest or weed control at 35 g/ha [4]: 80%
pest or weed control at 70 g/ha [4]: 85%
pest or weed control at 140 g/ha [4]: 95%
pest or weed control at 17.5 g/ha [5]: 10%
pest or weed control at 35 g/ha [5]: 20%
pest or weed control at 70 g/ha [5]: 40%
pest or weed control at 140 g/ha [5]: 50%
pest or weed control at 17.5 g/ha [6]: 0%
pest or weed control at 35 g/ha [6]: 0%
pest or weed control at 70 g/ha [6]: 10%
pest or weed control at 140 g/ha [6]: 10%
pest or weed control at 17.5 g/ha [7]: 60%
pest or weed control at 35 g/ha [7]: 70%
pest or weed control at 70 g/ha [7]: 75%
pest or weed control at 140 g/ha [7]: 80%
pest or weed control at 17.5 g/ha [8]: 0%
pest or weed control at 35 g/ha [8]: 0%
pest or weed control at 70 g/ha [8]: 0%
pest or weed control at 140 g/ha [8]: 0%
pest or weed control at 17.5 g/ha [9]: 0%
pest or weed control at 35 g/ha [9]: 0%
pest or weed control at 70 g/ha [9]: 0%
pest or weed control at 140 g/ha [9]: 10%
pest or weed control at 17.5 g/ha [10]: 0%
pest or weed control at 35 g/ha [10]: 0%
pest or weed control at 70 g/ha [10]: 0%
pest or weed control at 140 g/ha [10]: 0%
pest or weed control at 17.5 g/ha [11]: 0%
pest or weed control at 35 g/ha [11]: 0%
pest or weed control at 70 g/ha [11]: 0%
pest or weed control at 140 g/ha [11]: 0%
